Measurements: patent US5866570A, “Treatment of vascular leakage and related syndrome such as septic shock by administration of metalloproteinase inhibitors” (Wisconsin Alumni Research Foundation, priority 1994, dated 1999)

Key:
[1] = system: MDA-MB-231 cells (human breast carcinoma); assay: in vitro invasion assay through matrigel (Transwell); assay type: cell-based; details: preliminary screen
Description: Razoxane, various bis(hydroxylated)(2,6-dioxopiperazine)s, and various hydrophobic analogs were tested in an in vitro assay for inhibition of tumor cell penetration of a reconstituted basement membrane, matrigel, isolated from the Englegbreth-Holm-Swarm (EHS) tumor (disclosed in Kleinman et al., Biochem. (1982), 24, 6188-6193) first described by Albini et al, Cancer Res. (1987) 47, 3234-3245. An 8 μm pore filter coated with matrigel separates a lower compartment containing a chemoattractant and an upper compartment containing the cells and test compound. In particular, the following compounds were tested: razoxane, (1α, 2α, 4α, 5α)-4,4'-(4,5-dihydroxy-1,2-cyclohexanediyl)bis(2,6-piperazinedione); (1α, 2α, 4β, 5β)-4,4'-(4,5-dihydroxy-1,2-cyclohexanediyl)bis(2,6-piperazinedione);(1β, 2α,4α,5α)-4,4'-(4,5-dihydroxy-1,2-cyclohexanediyl)bis(2,6-piperazinedione); (1β, 2α, 4α,5β)-4,4'-(4,5-dihydroxy-1,2-cyclohexanediyl)bis(2,6piperazinedione); (1α, 2β, 4α,5β)-4,4'-(4,5-dihydroxy-1,2cyclohexanediyl)bis(2,6-piperazinedione); N,N'-cyclohexane-1,2-diylbis[N(2-ethoxy-2-oxoethyl)]glycine; N,N'-4-cyclohexene-1,2-diylbis[N-(2-ethoxy-2-oxoethyl)-glycine ester; (3aα, 5β, 6β, 7aα)-4,4'-(hexahydro-2,2-dimethyl1,3-benzodioxole-5,6-diyl)bis(2,6-piperazinedione); (3aα, 5α, 6α, 7aα)-4,4'-(hexahydro-2,2-dimethyl-1,3-benzodioxole-5,6-diyl)bis(2,6- piperazinedione); (3aα, 5α, 6β, 7aα)-4,4'-(hexahydro-2,2-dimethyl-1,3-benzodioxole-5,6-diyl)bis-2,6- piperazinedione; (3aα, 5β, 6α, 7aβ)-4,4'-(hexahydro-2,2dimethyl-1,3-benzodioxole-5,6-diyl)bis(2,6-piperazinedione); and (3aα, 5α, 6β, 7aβ)-4,4'-(hexahydro-2,2-dimethyl-1,3-benzodioxole-5,6-diyl) bis(2,6piperazinedione). Metastatic cells are able to degrade the basement membrane protein barrier and migrate through the pores of the filter whereas non-metastatic cells remain on the upper surface. The cells that pass to the under side of the filter are then counted under a microscope. […] Variations of this assay have been used to correlate this in vitro invasion with metastatic potential in vivo (Albini et al. (Id.); Hendrix et al. Cancer Letters (1987); 38, 127-247; Repesh L. A., Invasion Metastasis (1989) 9, 192-208 to select for more highly invasive cells (Teranova et al., Proc. Nat. Acad. Sci., (1986), 83, 465, 464; Tullberg et al., Invasion Metastasis, (1989), 9, 13-26; Sefer et al., Biotechniques, (1990), 9, 324-331), and to test compounds for inhibition (Nakajima et al., Cancer Res. (1989), 49, 1698-1756).
This method has been improved to increase the number of assays which may be performed and analyzed per day. In particular, such improvement comprises the use of disposable Transwells (Costar) units described by Repesh et al., Invasion Metastasis, (1989), 9, 192-208, which consist of an 8 μm pore filter attached to an insert that fits in a 24 well culture plate. Matrigel concentration is titrated from zero to complete inhibition of motility of each invasive cell line used in the assay and for each batch of matrigel. The matrigel concentration which yields 50% or greater inhibition of motility in a 6 hr assay (usually from 15 to 50 μg of protein per filter) is chosen for determination of invasion. Motility of cells through the 8 μm filters is not by passive diffusion since the pore size is smaller than the cells, and is determined in the same chamber in the absence of matrigel. Motility is stimulated two-fold by the presence of fibroblast conditioned medium (3T3 cells) as a chemoattractant (data not shown). The cell lines used are HT-1080, a human fibrosarcoma, and MDA-MB-231, a human breast carcinoma (both available from the American Type Tissue Culture). These cell lines express both the 72 kD and the 92 kD collagenase type IV as determined by zymography (data not shown).
For inhibition studies, 5×10^5 cells are plated in 200 μl of DMEM+0.1% BSA+the inhibitor (or appropriate solvent control) into the upper chamber of the Transwell. […]

[2] = system: retired bred BALB/C mice; assay: septic shock induced by i.v. endotoxin (E. coli 026:B6); assay type: in vivo; details: razoxane 100 μg/g i.p. before 200 μg endotoxin i.v.; heparin
Description: Two retired bred BALB/C mice were injected with 100 μg of endotoxin and 3 units of heparin i.v., followed by 10 units heparin subcutaneously. Another two mice were treated the same except with 200 μg of endotoxin. All died within 24 h.
Six retired bred BALB/C mice were treated with razoxane (100 μg/g body weight i.p.). The mice were then injected with 200 μg of endotoxin and 3 units of heparin i.v., followed by 10 units heparin subcutaneously.

[3] = system: OVCAR-3 cells; assay: OVCAR-3 human ovarian cancer model in nude mice; assay type: in vivo; details: 30 mg/kg i.p., one dose/day 5 consecutive days/week, from 24 hours before 20 million cells i.p.
Description: Dose and Schedule--Razoxane was suspended in sterile 1% CMC (carboxymethyl cellulose) 0.9% NaCl by sonication in a water bath. Mice received 30 mg/kg drug in 10 μl/g CMC per i.p. dose beginning 24 hours prior to cell implantation. Each mouse received one dose/day i.p. for 5 consecutive days with 2 days of recovery. Treatment continued until mouse death or sacrifice.
OVCAR-3 cells--were received from Dr. Tom Hamilton and are maintained by passage of ascites directly from the mouse. The ascites is harvested from the mouse by rinsing the peritoneal cavity with HBSS, treated briefly with Dispase to dissociate clumps, centrifuged, counted, resuspended in HBSS and 20 million cells injected i.p. per mouse.
Mice--HSD nu/nu female mice 6 weeks old (18-22 g) are weighed, tagged with a metal ear clip, and randomized for treatment or control groups. Mice are weighed daily and the dose of drug or vehicle is calculated.
Visible ascites appears around day 14 with small solid tumors at the sites of injections. The mice swell with hemorrhagic ascites prior to death. At necropsy mice contain massive invasive carcinomatosis obliterating most of the normal organs of the peritoneal cavity with significant metastasis to the lungs. A 25% increase in mean/median survival time with drug treatment is considered significant in this model.

[4] = system: L1210 leukemia; details: 13 doses at 30 mg/kg; cited from earlier work
[5] = system: mouse L cell; details: l cells; read-out: ID50 inhibition of colony formation; cited from earlier work
[6] = system: mouse-embryo fibroblasts; details: cited from earlier work
[7] = system: V-79A fibroblasts; details: tissue culture; cited from earlier work

Row | Structure (SMILES) | inhibition of invasion [1] | effect on cell motility ([1]; no matrigel) | mice surviving more than 24 h [2] | difference in the survival time between treated and control mice [3] [%] | increase in survival time [4] [%] | IC50 [5] [µM] | IC50, inhibition of [3H]thymidine incorporation [6] [µg/mL] | cytotoxic activity [7]
1 | CC1(C)O[C@H]2C[C@H](N3CC(=O)NC(=O)C3)[C@@H](N3CC(=O)NC(=O)C3)C[C@@H]2O1 (relative stereo) [Compound 80, (3aα, 5β, 6α, 7aβ)-4,4'-(hexahydro-2,2-dimethyl-1,3-benzodioxole-5,6-diyl)bis(2,6-piperazinedione)] | inhibit invasion | without inhibiting cell motility |  |  |  |  |  | 
2 | CC(CN1CC(=O)NC(=O)C1)N1CC(=O)NC(=O)C1 (centres unmarked) [razoxane] |  |  | Two out of six | > 33 | 137 | 3 | 0.5 | has cytoxic activity
